Results as given in patent US20220259202A1, “1-(4-(AMINOMETHYL)BENZYL)-2-BUTYL-2H-PYRAZOLO[3,4-C]QUINOLIN-4-AMINE DERIVATIVES AND RELATED COMPOUNDS AS TOLL-LIKE RECEPTOR (TLR) 7/8 AGONISTS, AS WELL AS ANTIBODY DRUG CONJUGATES THEREOF FOR USE IN CANCER THERAPY AND DIAGNOSIS” (SUTRO BIOPHARMA, INC., priority 2019, published 2022).

Tests used:
[1] = target: T1, mouse TLR7 (Mus musculus, UniProt P58681); test: HEK293 SEAP reporter assay, mouse TLR7 (Biological Example 1); assay type: cell-based; conditions: HEK293-mouseTLR7 reporter cells, 4 hrs; read-out: mTLR7 EC50
T1 construct: host or cells: HEK293
T1 sequence (P58681 27-1050): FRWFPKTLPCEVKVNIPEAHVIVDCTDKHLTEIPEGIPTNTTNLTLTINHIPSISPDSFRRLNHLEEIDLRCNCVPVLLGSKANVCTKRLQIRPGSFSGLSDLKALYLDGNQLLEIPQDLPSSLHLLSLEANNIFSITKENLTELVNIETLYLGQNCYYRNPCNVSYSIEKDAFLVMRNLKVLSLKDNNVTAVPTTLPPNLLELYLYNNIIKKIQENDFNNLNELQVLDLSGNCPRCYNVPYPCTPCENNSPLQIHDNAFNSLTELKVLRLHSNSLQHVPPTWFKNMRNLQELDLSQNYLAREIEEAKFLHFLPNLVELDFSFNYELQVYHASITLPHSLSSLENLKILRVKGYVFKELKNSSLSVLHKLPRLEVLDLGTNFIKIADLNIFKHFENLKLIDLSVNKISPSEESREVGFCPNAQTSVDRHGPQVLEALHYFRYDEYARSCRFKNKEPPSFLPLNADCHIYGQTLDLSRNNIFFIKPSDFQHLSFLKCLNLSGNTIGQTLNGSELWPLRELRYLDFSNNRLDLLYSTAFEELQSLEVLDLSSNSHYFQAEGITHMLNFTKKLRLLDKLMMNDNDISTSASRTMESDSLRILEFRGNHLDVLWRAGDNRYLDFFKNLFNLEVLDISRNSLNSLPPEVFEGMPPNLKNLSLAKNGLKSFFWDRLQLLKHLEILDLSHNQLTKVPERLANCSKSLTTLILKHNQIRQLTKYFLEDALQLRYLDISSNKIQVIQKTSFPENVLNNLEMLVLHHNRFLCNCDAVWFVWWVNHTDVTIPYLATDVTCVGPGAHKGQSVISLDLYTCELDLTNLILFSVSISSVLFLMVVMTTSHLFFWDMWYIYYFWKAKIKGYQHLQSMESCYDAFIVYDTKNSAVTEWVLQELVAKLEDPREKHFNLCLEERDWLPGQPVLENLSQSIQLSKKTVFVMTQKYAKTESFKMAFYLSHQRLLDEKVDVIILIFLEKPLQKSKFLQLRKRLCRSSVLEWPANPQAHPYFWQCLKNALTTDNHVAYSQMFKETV
Protocol: (§1) In this example, the activity of the TLR7 agonists to activate human TLR7, hTLR7 (or human TLR8, hTLR8, or mouse TLR7, mTLR7) pathway was evaluated on HEK293 reporter cells transfected with human TLR7 (or mouse TLR7 or human TLR8) and an inducible SEAP (secreted embryonic alkaline phosphatase) reporter gene. The SEAP reporter gene is placed under the control of the IFN-β minimal promoter fused to five NF-κB and AP-1-binding sites. Stimulation with a TLR7 agonist activates NF-KB and AP-1 which induces the production of SEAP. Levels of SEAP was determined with HEK-Blue Detection medium.
(§2) HEK293-humanTLR7, HEK293-mouseTLR7 and HEK293-humanTLR8 reporter cell lines were purchased from Invivogen and cell lines were maintained in manufacture recommended culture medium with required supplemental antibiotics. On the day of assay, the cells were harvested with Accutase and counted by the Vi-CELL Cell Viability Analyzers. Cells were re-suspended in HEK blue detection medium and a total of 10000 cells were seeded in each well of a 384-well flat bottom plate. Serial dilutions of TLR7 agonists free drugs (1:3 serial dilution starting from 5 μM) was added into treatment wells. Assay plates were cultured at 37° C. in a CO2 incubator for […]. HEK-Blue™ Detection medium changes to a purple/blue color in the presence of secreted SEAP, which can be detected by spectrophotometry at 620-655 nm. […]

[2] = target: T2, human TLR8 (Homo sapiens, UniProt Q9NR97); test: HEK293 SEAP reporter assay, human TLR8 (Biological Example 1); assay type: cell-based; conditions: HEK293-humanTLR8 reporter cells, 4 hrs; read-out: hTLR8 EC50
T2 construct: host or cells: HEK293
T2 sequence (Q9NR97 27-1041): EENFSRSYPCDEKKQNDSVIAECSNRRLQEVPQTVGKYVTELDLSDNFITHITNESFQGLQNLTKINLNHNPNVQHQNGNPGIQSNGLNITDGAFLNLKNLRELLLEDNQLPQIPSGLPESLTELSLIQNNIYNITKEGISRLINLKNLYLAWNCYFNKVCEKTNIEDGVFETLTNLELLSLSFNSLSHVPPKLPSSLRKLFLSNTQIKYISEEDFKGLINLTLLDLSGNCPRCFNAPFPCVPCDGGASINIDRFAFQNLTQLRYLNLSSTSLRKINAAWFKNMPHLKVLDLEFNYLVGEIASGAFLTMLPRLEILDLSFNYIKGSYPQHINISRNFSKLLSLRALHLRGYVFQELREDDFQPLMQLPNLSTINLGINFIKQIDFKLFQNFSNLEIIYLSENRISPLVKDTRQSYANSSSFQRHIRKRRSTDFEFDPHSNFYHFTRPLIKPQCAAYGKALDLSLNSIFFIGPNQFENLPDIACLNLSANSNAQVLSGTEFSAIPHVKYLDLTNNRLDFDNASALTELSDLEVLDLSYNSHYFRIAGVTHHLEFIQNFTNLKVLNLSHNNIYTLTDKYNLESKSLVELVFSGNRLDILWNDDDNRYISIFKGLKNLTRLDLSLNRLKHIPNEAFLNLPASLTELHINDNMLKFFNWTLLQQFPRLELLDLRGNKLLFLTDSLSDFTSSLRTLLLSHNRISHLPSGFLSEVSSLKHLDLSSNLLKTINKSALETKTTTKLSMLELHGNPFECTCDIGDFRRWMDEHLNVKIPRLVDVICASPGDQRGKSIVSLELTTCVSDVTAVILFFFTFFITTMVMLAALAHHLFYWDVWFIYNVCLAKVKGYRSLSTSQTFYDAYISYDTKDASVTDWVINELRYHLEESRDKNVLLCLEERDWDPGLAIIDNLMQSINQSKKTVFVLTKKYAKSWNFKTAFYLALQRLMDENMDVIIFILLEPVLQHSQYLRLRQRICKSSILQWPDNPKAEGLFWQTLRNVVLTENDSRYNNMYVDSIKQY
Protocol: as §1, §2

CCCCn1nc2c(N)nc3ccccc3c2c1Cc1ccc(CN)cc1 [Compound 1, 1-(4-(aminomethyl)benzyl)-2-butyl-2H-pyrazolo[3,4-c]quinolin-4-amine]
EC50 [1]: 29.1 nM | EC50 [2]: 820 nM
